The test system of one test is NICD (Notch intracellular domain) CSL-bla reporter in HeLa cells. Briefly: Notch assay (CellSensor T-REx NICD CSL-bla HeLa beta-lactamase reporter; Method 1 / Method 2). It is filed as cell-based. To be noted: Homo sapiens, 10 μM compound, Method 1 (10× compound prepared in assay medium, added to plated cells), read-out: inhibiton (%) at 10 μM. The source says: We used the CellSensor T-REx™ NICD CSL-bla HeLa cell line, which was engineered by lentiviral transduction of HeLa cells with a Notch response element driving beta-lactamase reporter gene expression (CSL-bla) along with DOX (doxycycline)-inducible NICD (Notch intracellular domain) constructs. Addition of DOX to these cells allows for regulated NICD transcription factor expression and subsequent beta-lactamase expression.
Specifically, the following protocol was used.
NOTCH ASSAY PROTOCOL (Method 2)
• 1. Add 40 nL/well of working concentration of 1000× compound to 384-well assay plate with Echo. • 2. Plate Cells: 35 μl/well of HeLa/T-REx™ NICD CSL-bla cells at 10^3 cells/well complete medium into 384-well plate. • 3. Add 5 μl 8× Doxycycline in Assay Medium to the treated wells, and 5 μl Assay Medium to the Untreated and cell free control wells. • 4. Incubate the assay plate in a humidified 37° C./5% CO2 incubator for 16-20 hours. • 5. Preparation of 6× LiveBLAzer™-FRET B/G Substrate (CCF4-AM) Mixture according to the manual and cell loading should be done in the absence of direct strong lighting. • 6. Remove assay plate from the humidified 37° C./5% CO2 incubator. Add 8 μl of 6× Substrate Mixture from Step 5 to each well. Cover the plate to protect it from light and evaporation. Incubate at room temperature for 4 hours. • 7. Reading an Assay Plate using the following filter selections:
• 8. Data analysis: Use the assay plate layout to identify the location of the Cell-free wells. These control wells are used for background subtraction. Determine the average emission from the Cell-free wells at both 460 nm (Average Blue Background) and 530 nm(Average Green Background). Subtract the Average Blue Background (data collected at 460 nm) from all of the blue emission data. Subtract the Average Green background (data collected at 530 nm) from all of the green emission data. Calculate the Blue/Green Emission Ratio for each well, by dividing the background-subtracted blue emission values by the background-subtracted green emission values.
Instead of Step 1 to Step 3, the following Step a to Step d can also be performed. The subsequent steps are the same as Method 2, after Step 4 (Method 1). • a. Plate Cells: 32 μL/well of HeLa/T-REx™ NICD CSL-bla cells at 10^3 cells/well complete medium into 384-well plate. • b. Prepare 10× compounds in assay medium. • c. Add 4 μL compounds or 1% DMSO in assay medium to the cells. • d. Add 4 μL 10×Doxycycline in Assay Medium to the treated wells, and 4 μL Assay Medium to the Untreated and cell free control wells.
The results are shown in Table 13 (Table 13-1 to Table 13-2).
Consider `CCCCCCOC(=O)N1O[C@@H](CCCC)C(=O)N2C1CN(Cc1ccccc1)C(=O)[C@@H]2Cc1ccc(O)cc1` (stereo partly drawn) [Compound I-4, (3S,6S)-hexyl 8-benzyl-3-butyl-6-(4-hydroxybenzyl)-4,7-dioxohexahydropyrazino[2,1-c][1,2,4]oxadiazine-1(6H)-carboxylate], for which the inhibition at 10 µM turned out to be 57.1%. Same read-out and setting: the value for `CC(C)COC(=O)N1O[C@H](C(C)C)C(=O)N2C1CN(Cc1cccc3ccccc13)C(=O)[C@@H]2Cc1ccc(O)cc1` (stereo partly drawn) [Compound I-1, (3R,6S)-isobutyl 6-(4-hydroxybenzyl)-3-isopropyl-8-(naphthalen-1-ylmethyl)-4,7-dioxohexahydropyrazino[2,1-c][1,2,4]oxadiazine-1(6H)-carboxylate] was 55.9%; that for `CC(C)[C@H]1C(=O)N(Cc2cccc3ccccc23)CC2N(C(=O)OCc3cccc4ccccc34)O[C@H](CC(N)=O)C(=O)N21` (stereo partly drawn) [Compound I-19, (3R,6S)-naphthalen-1-ylmethyl 3-(2-amino-2-oxoethyl)-6-isopropyl-8-(naphthalen-1-ylmethyl)-4,7-dioxohexahydropyrazino[2,1-c][1,2,4]oxadiazine-1(6H)-carboxylate] was 67.3%. `CCCC[C@H]1C(=O)N(CCC(N)=O)CC2N(C(=O)OCc3cccc4ccccc34)O[C@@H](Cc3ccccc3)C(=O)N21` (stereo partly drawn) [Compound I-25, (3S,6S)-naphthalen-1-ylmethyl 8-(3-amino-3-oxopropyl)-3-benzyl-6-butyl-4,7-dioxohexahydropyrazino[2,1-c][1,2,4]oxadiazine-1(6H)-carboxylate]: the inhibition at 10 µM was 70.3%. As for `CCCC[C@@H]1ON(C(=O)OCc2cccc3ccccc23)C2CN(C(C)C)C(=O)[C@H](Cc3ccc(O)cc3)N2C1=O` (stereo partly drawn) [Compound I-23, (3S,6S)-naphthalen-1-ylmethyl 3-butyl-6-(4-hydroxybenzyl)-8-isopropyl-4,7-dioxohexahydropyrazino[2,1-c][1,2,4]oxadiazine-1(6H)-carboxylate], the inhibition at 10 µM is 50.4%.

The same test, now with this note: Homo sapiens, 10 μM compound, Method 2 (40 nL of 1000× compound added to plate with Echo), read-out: inhibiton (%) at 10 μM.
Turning to `C[C@H]1ON(C(=O)OCCc2ccc(O)cc2)C2CN([C@@H](Cc3ccccc3)C(=O)NCCC(N)=O)C(=O)[C@H](Cc3ccccc3)N2C1=O` (stereo partly drawn) [Compound I-86, 4-hydroxyphenethyl (3R,6S)-8-((S)-1-((3-amino-3-oxopropyl)amino)-1-oxo-3-phenylpropan-2-yl)-6-benzyl-3-methyl-4,7-dioxohexahydro-pyrazino[2,1-c] [1,2,4]oxadiazine-1(6H)-carboxylate], the inhibition at 10 µM came to 70.9%.

Regarding `CC(C)C[C@H]1ON(CCCC2CCN(S(C)(=O)=O)CC2)C2CN(C3CCN(C)CC3)C(=O)[C@H](CC(C)C)N2C1=O` (stereo partly drawn) [Compound I-151, (3R,6S)-3,6-diisobutyl-8-(1-methylpiperidin-4-yl)-1-(3-(1-(methylsulfonyl)piperidin-4-yl)propyl) tetrahydropyrazino [2,1-c][1,2,4]oxadiazine-4,7(3H,6H)-dione], the inhibition at 10 µM was 88%.

Take `CCCCCOC(=O)N1O[C@H](Cc2ccccc2)C(=O)N2C1CN([C@@H](CC(C)C)C(=O)NCCCc1ccc(O)cc1)C(=O)[C@@H]2CCC(N)=O` (stereo partly drawn) [Compound I-127, pentyl (3R,6S)-6-(3-amino-3-oxopropyl)-3-benzyl-8-((S)-1-((3-(4-hydroxyphenyl)propyl)amino)-4-methyl-1-oxopentan-2-yl)-4,7-dioxohexahydropyrazino [2,1-c][1,2,4]oxadiazine-1(6H)-carboxylate]: the inhibition at 10 µM was determined as 62.1%. `CC(C)CCOC(=O)N1O[C@H](Cc2ccc(O)cc2)C(=O)N2C1CN([C@@H](Cc1ccc(O)cc1)C(=O)NCCc1ccccc1)C(=O)[C@@H]2Cc1ccc(O)cc1` (stereo partly drawn) [Compound I-117, isopentyl (3R,6S)-3,6-bis(4-hydroxybenzyl)-8-((S)-3-(4-hydroxyphenyl)-1-oxo-1-(phenethylamino)propan-2-yl)-4,7-dioxohexahydropyrazino[2,1-c][1,2,4]oxadiazine-1(6H)-carboxylate]: the inhibition at 10 µM was 59.7%. Regarding `CC(C)CCOC(=O)N1O[C@H](Cc2ccccc2)C(=O)N2C1CN([C@@H](Cc1ccccc1)C(=O)NCCc1ccccc1)C(=O)[C@@H]2Cc1ccc(O)cc1` (stereo partly drawn) [Compound I-105, isopentyl (3R,6S)-3-benzyl-6-(4-hydroxybenzyl)-4,7-dioxo-8-((S)-1-oxo-1-(phenethylamino)-3-phenylpropan-2-yl)hexahydropyrazino[2,1-c][1,2,4]oxadiazine-1(6H)-carboxylate], the inhibition at 10 µM came to 60.9%. As to `CC(C)CCOC(=O)N1O[C@H](C)C(=O)N2C1CN([C@@H](Cc1ccccc1)C(=O)NCCCO)C(=O)[C@@H]2Cc1ccccc1` (stereo partly drawn) [Compound I-89, isopentyl (3R,6S)-6-benzyl-8-((S)-1-((3-hydroxypropyl)amino)-1-oxo-3-phenylpropan-2-yl)-3-methyl-4,7-dioxohexahydropyrazino[2,1-c][1,2,4]oxadiazine-1(6H)-carboxylate], the inhibition at 10 µM is 58.3%. Take `CC(C)CCNC(=O)[C@H](CC(C)C)N1CC2N(C(=O)OCCc3ccc(O)cc3)O[C@H](CC(C)C)C(=O)N2[C@@H](Cc2ccc(O)cc2)C1=O` (stereo partly drawn) [Compound I-91, 4-hydroxyphenethyl (3R,6S)-6-(4-hydroxybenzyl)-3-isobutyl-8-((S)-1-(isopentylamino)-4-methyl-1-oxopentan-2-yl)-4,7-dioxohexahydropyrazino[2,1-c][1,2,4]oxadiazine-1(6H)-carboxylate]: the inhibition at 10 µM is 51%. On the same count and under the same terms, as for `CC(C)C[C@H]1ON(C(=O)OCc2cccc3ccccc23)C2CN(C3CCN(C)CC3)C(=O)[C@H](CC(C)C)N2C1=O` (stereo partly drawn) [Compound I-137, naphthalen-1-ylmethyl (3R,6S)-3,6-diisobutyl-8-(1-methylpiperidin-4-yl)-4,7-dioxohexahydropyrazino[2,1-c][1,2,4]oxadiazine-1(6H)-carboxylate], the figure is 81.8%; as for `CC(C)C[C@H]1ON(C(=O)OCc2ccccc2)C2CN(C3CCN(C)CC3)C(=O)[C@H](CCCCNC3CN(C(=O)OC(C)(C)C)C3)N2C1=O` (stereo partly drawn) [Compound I-146, benzyl (3R,6S)-6-(4-((1-(tert-butoxycarbonyl)azetidin-3-yl)amino)butyl)-3-isobutyl-8-(1-methylpiperidin-4-yl)-4,7-dioxohexahydropyrazino[2,1-c][1,2,4]oxadiazine-1(6H)-carboxylate], 105%. With `CC(C)C[C@H]1ON(C(=O)OCC2CCCCC2)C2CN(CCc3ccccc3)C(=O)[C@H](CCCCN)N2C1=O` (stereo partly drawn) [Compound I-30, (3R,6S)-cyclohexylmethyl 6-(4-aminobutyl)-3-isobutyl-4,7-dioxo-8-phenethylhexahydropyrazino [2,1-c][1,2,4]oxadiazine-1(6H)-carboxylate], the inhibition at 10 µM was 117%. On to `NCCCC[C@H]1C(=O)N(CC2CCCCC2)CC2N(C(=O)OCC3CCCCC3)O[C@H](Cc3ccccc3)C(=O)N21` (stereo partly drawn) [Compound I-29, (3R,6S)-cyclohexylmethyl 6-(4-aminobutyl)-3-benzyl-8-(cyclohexylmethyl)-4,7-dioxohexahydropyrazino[2,1-c][1,2,4]oxadiazine-1(6H)-carboxylate], for which the inhibition at 10 µM amounted to 101%. Turning to `CC[C@H](C)CN1CC2N(C(=O)OCC(C)C)O[C@H](CC3CCCCC3)C(=O)N2[C@@H](CCCCN)C1=O` (stereo partly drawn) [Compound I-40, (3R,6S)-isobutyl 6-(4-aminobutyl)-3-(cyclohexylmethyl)-8-((S)-2-methylbutyl)-4,7-dioxohexahydropyrazino[2,1-c][1,2,4]oxadiazine-1(6H)-carboxylate], the inhibition at 10 µM worked out at 124%.

Take `CCCC[C@@H](C(=O)NCCc1ccccc1)N1CC2N(C(=O)OCCc3ccc(O)cc3)O[C@H](CC(C)C)C(=O)N2[C@@H](Cc2ccc(O)cc2)C1=O` (stereo partly drawn) [Compound I-103, 4-hydroxyphenethyl (3R,6S)-6-(4-hydroxybenzyl)-3-isobutyl-4,7-dioxo-8-((S)-1-oxo-1-(phenethylamino)hexan-2-yl)hexahydropyrazino[2,1-c][1,2,4]oxadiazine-1(6H)-carboxylate]: the inhibition at 10 µM came to 59.9%. The same measure, in the same setting: the value for `CCCCCC[C@H]1C(=O)N(C2CCN(C)CC2)C[C@@H]2N(CCCc3ccccc3)O[C@H](CC(C)C)C(=O)N21` [Compound I-142, (3R,6S,9aS)-6-hexyl-3-isobutyl-8-(1-methylpiperidin-4-yl)-1-(3-phenylpropyl) tetrahydropyrazino [2,1-c][1,2,4]oxadiazine-4,7(3H,6H)-dione] was 113%.

Source of the values: patent US20230374034A1, “NOVEL BICYCLIC COMPOUNDS” (PRISM BIOLAB CO., LTD., priority 2020, published 2023).
